{
  "source": "patent US20110137633A1",
  "about": "“ANTI-VIRAL COMPOUNDS AND METHODS OF IDENTIFYING THE SAME” (ABBOTT LABORATORIES, priority 2009, published 2011)",
  "key": {"HCV 1a replicon": {"system": "HCV 1a replicon", "test": "HCV 1a replicon assay (luciferase reporter)", "format": "cell-based, Hepatitis C virus genotype 1a-H77", "conditions": "in vitro, relative to compound of FIG. 2A"}, "HCV 1b replicon": {"system": "HCV 1b replicon", "test": "HCV 1b replicon assay (luciferase reporter)", "format": "cell-based, Hepatitis C virus genotype 1b-Con1", "conditions": "in vitro, relative to compound of FIG. 2A"}},
  "data": [
    {"smiles": "CC(C)c1ccc2c(Nc3cc(C(=O)N[C@@H](C)c4ccccc4)ccc3Sc3ccc(N)cc3)ncnc2n1", "note": "[compound of FIG. 2B]", "values": [
      {"measurement": "increase in HCV replication inhibitory activities compared to the compound of FIG. 2A", "setting": "HCV 1a replicon", "result": "over 1,000 fold"},
      {"measurement": "increase in HCV replication inhibitory activities compared to the compound of FIG. 2A", "setting": "HCV 1b replicon", "result": "over 600 fold"}
    ]}
  ]
}
